What all share (type): biochemical
Assay [1] deals with T1, β-tryptase (Homo sapiens, UniProt P20231). Put plainly: Kinetic progress curves (kapp, K1, KI*, mechanism). The arrangement: purchased EnzoLife Sciences. The note with it: for β-tryptase kapp: apparent second-order rate constant from progress curves; for β-tryptase kapp / Ki: mean ± SD; for β-tryptase mechanism of inhibition: defined by the progress curves: slow-binding (Rev.) or irreversible (Irrev.). How it is done: (§1) Because the compounds described in this paper were previously described as irreversible inhibitors, the IC50 value is inversely correlated with the second-order rate constant of inactivation. For a simple pseudo-first-order inactivation process, the activity after incubation with inhibitor (vi) varies with the inhibitor concentration (i), as described in the following equation: vi=v0·e^−kit where v0 is the activity in the absence of an inhibitor, k is the second-order rate constant of inactivation, and t is the time. The inactivation rate constant was determined from the time course of inhibition.
T1 sequence (P20231 31-275): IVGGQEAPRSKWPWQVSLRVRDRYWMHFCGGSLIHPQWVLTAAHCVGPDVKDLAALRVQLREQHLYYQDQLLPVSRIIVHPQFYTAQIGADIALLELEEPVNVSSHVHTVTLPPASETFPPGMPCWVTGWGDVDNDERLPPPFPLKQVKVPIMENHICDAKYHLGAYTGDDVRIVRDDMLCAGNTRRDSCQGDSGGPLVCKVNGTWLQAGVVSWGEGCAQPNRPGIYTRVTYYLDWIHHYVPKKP
(§2) Kinetic assays were performed in the following manner. The inhibitor was mixed with the substrate, and the buffer solution with the enzyme was added at the time zero. The progress curves show the release of pNA or AMC as a function of time. Initially, no inhibitor is bound to the enzyme, and the tangent to the progress curve (dA/dt) is proportional to the free enzyme concentration. The free enzyme concentration decreases over time due to inhibitor binding kinetics, as described above. Progress curves were recorded in pseudo-first-order conditions ([I]0>>[E]0) and with less than 10% conversion of the substrate during the entire time course. In these conditions, dA/dt decreases exponentially with time. The progress curves were fitted with the integrated rate equation with GraFit7 to yield a value for kobs, a pseudo-first-order rate constant. At=Ao+vs∙t+vi−vs∙1−e^−kobs∙t/kobs where At is the absorbance at time t, A0 is the absorbance at time zero, vi is the initial rate and vs is the velocity at the steady-state.
(§3) The apparent second-order rate constant (kapp) was calculated from the slope of the linear part of the plot of kobs vs. the inhibitor concentration ([I]0). In the case of competition between the inhibitor and the substrate, kapp is smaller than the “real” second-order rate constant k discussed above because a certain fraction of the enzyme is present as an enzyme-substrate complex. kapp depends on the substrate concentration used in the experiment, as described by [Lambeir et al. (1996)].
(§4) The apparent equilibrium constants were obtained from the following equations, vi/vo=1/1+I/K1; vS/vo=1/1+I/KI* where vi is the initial rate, vs is the steady-state velocity and vo is the uninhibited initial rate.

The target of assay [2] is T1, β-tryptase. In words: Jump dilution, determination of inhibition type. Conditions: inhibitor at 10 times IC50, 15 min, diluted 10-fold or 100-fold; Rev./Irrev. On the set-up: purchased EnzoLife Sciences. How it is done: The dissociation of the enzyme-inhibitor complex was monitored by substrate hydrolysis over time ([Joossens et al., 2006]).
Because ABPs are designed to be irreversible serine protease inhibitors, the IC50 is exclusively used as a first discriminatory evaluation. When an inhibitor is irreversible, its IC50 value not only depends on the substrate and enzyme concentration but also on the time of incubation with the enzyme before the reaction is started by adding the substrate. […] The progress curve in the presence of an irreversible inhibitor will show final velocities equal to zero (Figure 6C). In contrast, for a reversible inhibitor, progress curves have a non-zero final steady-state velocity (Figure 6A) ([McWhirter, 2021]). To corroborate the inhibitory mechanism of the compounds, jump-dilution assays were performed. These use an inhibitor concentration of 10-fold the IC50 for the incubation, and a posteriori, the reaction mixture is diluted 10-fold or 100-fold before adding the substrate. In the case of an irreversible inhibitor, enzymatic activity is not regained (Figure 6D), whereas, in the case of a reversible compound, a slow release of the inhibitor and a gradual increase of the enzymatic activity rate is observed (Figure 6B) ([Copeland, 2013]; [McWhirter, 2021]). The jump-dilution assays confirmed the behavior described by the progress curves.
2.2.2 Jump dilution results
Supplementary Table 2. Jump dilution of selected alkyne and desthiobiotin probes against a panel of trypsin-like serine proteases. […]
# R R DtBa 3 tryptase Thrombin uPA CatG
32b H Alk Irrev. Irrev. Rev. Irrev. Rev.
45b DtB Irrev. Irrev. Rev. N.D. N.D.
33b Alk Irrev. Irrev. Rev. Irrev. Rev.
46b Cl DtB Irrev. Irrev. Rev. N.D. N.D.
34b H Alk Rev. Rev. Rev. Irrev. Rev.
50b DtB Rev. Rev. Rev. Irrev. Rev.
35b Alk Rev. Rev. Rev. Irrev. Rev.
52b NHCOMe DtB Rev. Rev. Rev. Irrev. Rev.
36b Alk Rev. Rev. Rev. Irrev. Rev.
54b Cl DtB Rev. Rev. Rev. Irrev. Rev.
37b Alk Irrev. Irrev. N.D. Irrev. Irrev.
55b H DtB Irrev. Irrev. N.D. Irrev. Irrev.
38b Alk Irrev. Irrev. N.D. Irrev. Irrev.
56b NHCOMe DtB Irrev. Irrev. N.D. Irrev. Irrev.
39b Alk Irrev. Irrev. N.D. Irrev. Rev.
57b Cl DtB Irrev. Irrev. N.D. Irrev. Rev.
41b H Alk Irrev. Irrev. Irrev. N.D. N.D.
31b Pro-Lys H Alk Irrev. Irrev. Irrev. Irrev. N.D. a Alk: ABP precursor bearing an alkyne; DtB: desthiobiotin probe b Panel of serine proteases abbreviations: urokinase plasminogen activator (uPA), cathepsin G (catG) N.D.: IC50 is greater than 10µM, and jump dilution was not performed
2.2.3 Progress curves and Jump dilution experiments
Kinetic assays were performed in the following manner. The inhibitor was mixed with the substrate, and the buffer solution with the enzyme was added at the time zero. The progress curves show the release of para-nitroaniline (pNA) or 7-amino-4-methyl coumarin (AMC) as a function of time.
To monitor the dissociation of the inhibitor-enzyme, aliquots of the enzyme were incubated at 37 °C without and with the inhibitor at a concentration 10 times higher than its IC 50. The enzyme […]
min, the aliquots were diluted 10-fold or 100-fold into the substrate concentration and assay buffer used for the IC50 determination. The dissociation of the enzyme-inhibitor complex was monitored by substrate hydrolysis over time. Blue lines represent the control where no inhibitor was present. Pink lines represent the assay with inhibitor.

The next assay has as its target T2, CatG (Homo sapiens, UniProt P08311).
T2 sequence (P08311 21-255): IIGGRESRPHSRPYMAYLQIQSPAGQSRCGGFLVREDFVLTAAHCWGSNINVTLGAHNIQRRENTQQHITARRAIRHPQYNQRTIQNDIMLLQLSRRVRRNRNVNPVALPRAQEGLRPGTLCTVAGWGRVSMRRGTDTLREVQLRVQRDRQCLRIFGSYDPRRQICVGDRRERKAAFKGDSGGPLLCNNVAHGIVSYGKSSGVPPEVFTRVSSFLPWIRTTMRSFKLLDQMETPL
In words: Kinetic progress curves (kapp, mechanism). The arrangement: Cathepsin G (cathepsin G human neutrophil, Sigma-Aldrich); purchased Sigma-Aldrich; host or cells: human neutrophil. Conditions: for CatG mechanism of inhibition: defined by the progress curves: slow-binding (Rev.) or irreversible (Irrev.); for CatG kapp: apparent second-order rate constant from progress curves, mean ± SD. How it is done:
as §1, §2, §3, §4

Setting [3] is: β-tryptase K1, apparent equilibrium constant of the first step of slow-binding.
Setting [4] is: β-tryptase KI*, apparent equilibrium constant of the overall process.

Data on twelve compounds can be found in PMC9849758, “Chemically diverse activity-based probes with unexpected inhibitory mechanisms targeting trypsin-like serine proteases” (Frontiers in Chemistry, 2023).

The structures appear in SMILES notation. Entries after “also recorded” stand apart in the source; their conditions may differ. Where a name gives a salt, the structure may show the parent alone.

With `C#CCCCOC(=O)NC(C1CCN(C(=N)N)CC1)P(=O)(Oc1ccccc1)Oc1ccccc1` (centres unmarked) [41b], on β-tryptase [1], the β-tryptase kapp was 27 ± 2 M⁻¹ s⁻¹ and the “β-tryptase mechanism of inhibition” value is “irreversible inhibition; also recorded: Irrev”. Besides, the “β-tryptase jump dilution result” value on β-tryptase [2] is given as “Irrev”.

Regarding `C#CCCCOC(=O)NC(c1ccc(NC(=N)N)cc1)P(=O)(Oc1ccc(Cl)cc1)Oc1ccc(Cl)cc1` (centres unmarked) [39b, Pent-4-yn-1-yl ((bis(4-chlorophenoxy)phosphoryl)(4-guanidinophenyl)methyl)carbamate], at CatG, the “CatG mechanism of inhibition” value is “reversibly and Rev”. The “β-tryptase mechanism of inhibition” value on β-tryptase [1] is given as “irreversible; also recorded: Irrev”. The “β-tryptase jump dilution result” value at β-tryptase [2] is recorded as “Irrev”.

As to `C[C@@H]1NC(=O)N[C@@H]1CCCCCC(=O)NCCOCCOCCOCCn1cc(CCCOC(=O)NC(CCCNC(=N)N)P(=O)(Oc2ccc(Cl)cc2)Oc2ccc(Cl)cc2)nn1` (some centres unmarked) [46b], at β-tryptase [1], the β-tryptase kapp is recorded as 75 × 10^2 ± 1475 M^−1 s^−1 and the “β-tryptase mechanism of inhibition” value is recorded as “Irrev”. For the same compound, the “β-tryptase jump dilution result” value on β-tryptase [2] is given as “Irrev”.

As to `C#CCCCOC(=O)NC(CCCNC(=N)N)P(=O)(Oc1ccc(Cl)cc1)Oc1ccc(Cl)cc1` (centres unmarked) [33b], the “CatG mechanism of inhibition” value at CatG is recorded as “* ^d Rev”. In addition, on β-tryptase [1], the β-tryptase kapp was 28 × 10^2 ± 82 M^−1 s^−1 and the “β-tryptase mechanism of inhibition” value is reported as “irreversibility; also recorded: irreversible; also recorded: Irrev”. For the same compound, the “β-tryptase jump dilution result” value on β-tryptase [2] is given as “Irrev”.

As to `C#CCCCOC(=O)NC(Cc1ccc(NC(=N)N)cc1)P(=O)(Oc1ccc(Cl)cc1)Oc1ccc(Cl)cc1` (centres unmarked) [36b], the “CatG mechanism of inhibition” value at CatG was “* ^d Rev”. At β-tryptase [1], the β-tryptase kapp is recorded as 61 × 10^3 ± 6860 M^−1 s^−1; the “β-tryptase mechanism of inhibition” value is “reversible and Rev”. For the same compound, at β-tryptase [1] (setting [3]), the Ki worked out at 340 ± 70 nM. On β-tryptase [1] (setting [4]), the Ki came to 90 ± 10 nM. Moreover, the “β-tryptase jump dilution result” value on β-tryptase [2] is “Rev”.

On to `CC(=O)Nc1ccc(OP(=O)(Oc2ccc(NC(C)=O)cc2)C(Cc2ccc(NC(=N)N)cc2)NC(=O)OCCCc2cn(CCOCCOCCOCCNC(=O)CCCCC[C@H]3NC(=O)N[C@H]3C)nn2)cc1` (some centres unmarked) [52b], for which, on CatG, the “CatG mechanism of inhibition” value is given as “* ^d Rev”. In addition, at β-tryptase [1], the β-tryptase kapp was 18 × 10^3 ± 1184 M^−1 s^−1; the “β-tryptase mechanism of inhibition” value is “Reversible and Rev”. The Ki at β-tryptase [1] (setting [3]) worked out at 680 ± 70 nM. Besides, the Ki at β-tryptase [1] (setting [4]) is 60 ± 3 nM. Also, the “β-tryptase jump dilution result” value at β-tryptase [2] is “Rev. and Reversible”.

In the case of `C#CCCCOC(=O)NC(c1ccc(NC(=N)N)cc1)P(=O)(Oc1ccc(NC(C)=O)cc1)Oc1ccc(NC(C)=O)cc1` (centres unmarked) [38b, Pent-4-yn-1-yl ((bis(4-acetamidophenoxy)phosphoryl)(4-guanidinophenyl)methyl) carbamate], at CatG, the CatG kapp is on record as 14 × 10^2 ± 52 M^−1 s^−1 and the “CatG mechanism of inhibition” value is recorded as “Irrev”. Moreover, at β-tryptase [1], the β-tryptase kapp was 20 × 10^2 ± 54 M^−1 s^−1 and the “β-tryptase mechanism of inhibition” value is recorded as “Irrev”. Moreover, at β-tryptase [2], the “β-tryptase jump dilution result” value is “Irrev”.

Regarding `C[C@@H]1NC(=O)N[C@@H]1CCCCCC(=O)NCCOCCOCCOCCn1cc(CCCOC(=O)NC(Cc2ccc(NC(=N)N)cc2)P(=O)(Oc2ccccc2)Oc2ccccc2)nn1` (stereo partly drawn) [50b, 3-(1-(18-((4R,5S)-5-methyl-2-oxoimidazolidin-4-yl)-13-oxo-3,6,9-trioxa-12-azaoctadecyl)-1H-1,2,3-triazol-4-yl)propyl (1-(diphenoxyphosphoryl)-2-(4-guanidinophenyl)ethyl)carbamate trifluoroacetate salt], the “CatG mechanism of inhibition” value at CatG is “* ^d Rev”. At β-tryptase [1], the β-tryptase kapp is recorded as 32 × 10^2 ± 613 M^−1 s^−1 and the “β-tryptase mechanism of inhibition” value is given as “Rev”. Besides, the Ki on β-tryptase [1] (setting [3]) came out at 3280 ± 500 nM. The Ki on β-tryptase [1] (setting [4]) turned out to be 410 ± 30 nM. The “β-tryptase jump dilution result” value at β-tryptase [2] was “Rev”.

For the compound `C#CCCCOC(=O)NC(c1ccc(NC(=N)N)cc1)P(=O)(Oc1ccccc1)Oc1ccccc1.O=C(O)C(F)(F)F` (centres unmarked) [37b, Pent-4-yn-1-yl ((diphenoxyphosphoryl)(4-guanidinophenyl)methyl)carbamate trifluoroacetate salt], on CatG, the CatG kapp turned out to be 582 ± 2 M⁻¹ s⁻¹ and the “CatG mechanism of inhibition” value is recorded as “Irrev”. Also, on β-tryptase [1], the β-tryptase kapp came to 375 ± 34 M⁻¹ s⁻¹ and the “β-tryptase mechanism of inhibition” value is given as “Irrev”. Moreover, at β-tryptase [2], the “β-tryptase jump dilution result” value is on record as “Irrev”.

`C[C@@H]1NC(=O)N[C@@H]1CCCCCC(=O)NCCOCCOCCOCCn1cc(CCCOC(=O)NC(c2ccc(NC(=N)N)cc2)P(=O)(Oc2ccc(Cl)cc2)Oc2ccc(Cl)cc2)nn1` (some centres unmarked) [57b]: on CatG, the CatG kapp is on record as 11 × 10^2 ± 117 M^−1 s^−1; the “CatG mechanism of inhibition” value is “reversibly and Rev”. Also, on β-tryptase [1], the β-tryptase kapp is recorded as 65 × 10^2 ± 1,203 M^−1 s^−1 and the “β-tryptase mechanism of inhibition” value was “Irrev”. In addition, at β-tryptase [2], the “β-tryptase jump dilution result” value is recorded as “Irrev”.

Regarding `C#CCCCOC(=O)NC(CCCNC(=N)N)P(=O)(Oc1ccccc1)Oc1ccccc1` (centres unmarked) [32b], at CatG, the “CatG mechanism of inhibition” value is recorded as “* ^d Rev”. For the same compound, on β-tryptase [1], the β-tryptase kapp turned out to be 41 ± 5 M⁻¹ s⁻¹ and the “β-tryptase mechanism of inhibition” value is “Irrev”. Further, at β-tryptase [2], the “β-tryptase jump dilution result” value is on record as “Irrev”.

For `C[C@@H]1NC(=O)N[C@@H]1CCCCCC(=O)NCCOCCOCCOCCn1cc(CCCOC(=O)NC(CCCNC(=N)N)P(=O)(Oc2ccccc2)Oc2ccccc2)nn1` (some centres unmarked) [45b], on β-tryptase [1], the β-tryptase kapp came out at 237 ± 42 M⁻¹ s⁻¹ and the “β-tryptase mechanism of inhibition” value is “Irrev”. In addition, the “β-tryptase jump dilution result” value at β-tryptase [2] is “Irrev”.
